# Source: PubChem BioAssay AID2060904 (Molecular Pharmacology Branch, DTP, NCI, 2025)
# Test system: 349418-098-R-PDC complex spheroid viability
# Assay: Anticancer human tumor 349418-098-R-PDC patient-derived lung adenocarcinoma cell line growth inhibition [RAS]
# Details: for IC50: curve of first compound; for viability, T/C: stronger effect = lower value
# Summary of the method: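 Tumour cells grown as complex spheroids with HUVEC endothelial cells and mesenchymal stem cells, treated with RAS pathway inhibitor combinations. Each agent spans half-log steps from near clinical Cmax, or 10 microM where Cmax is unknown.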
# [1] = second compound 0.000949 µM, first compound 0.0316 µM
# [2] = second compound 0.000949 µM, first compound 0.1 µM
# [3] = second compound 0.000949 µM, first compound 0.316 µM
# [4] = second compound 0.000949 µM, first compound 1 µM
# [5] = second compound 0.000949 µM, first compound 3.16 µM
# [6] = second compound 0.000949 µM, first compound 10 µM
# [7] = second compound 0.003 µM, first compound 0.0316 µM
# [8] = second compound 0.003 µM, first compound 0.1 µM
# [9] = second compound 0.003 µM, first compound 0.316 µM
# [10] = second compound 0.003 µM, first compound 1 µM
# [11] = second compound 0.003 µM, first compound 3.16 µM
# [12] = second compound 0.003 µM, first compound 10 µM
# [13] = second compound 0.00949 µM, first compound 0.0316 µM
# [14] = second compound 0.00949 µM, first compound 0.1 µM
# [15] = second compound 0.00949 µM, first compound 0.316 µM
# [16] = second compound 0.00949 µM, first compound 1 µM
# [17] = second compound 0.00949 µM, first compound 3.16 µM
# [18] = second compound 0.00949 µM, first compound 10 µM
# [19] = second compound 0.03 µM, first compound 0.0316 µM
# [20] = second compound 0.03 µM, first compound 0.1 µM
# [21] = second compound 0.03 µM, first compound 0.316 µM
# [22] = second compound 0.03 µM, first compound 1 µM
# [23] = second compound 0.03 µM, first compound 3.16 µM
# [24] = second compound 0.03 µM, first compound 10 µM
# [25] = second compound 0.0949 µM, first compound 0.0316 µM
# [26] = second compound 0.0949 µM, first compound 0.1 µM
# [27] = second compound 0.0949 µM, first compound 0.316 µM
# [28] = second compound 0.0949 µM, first compound 1 µM
# [29] = second compound 0.0949 µM, first compound 3.16 µM
# [30] = second compound 0.0949 µM, first compound 10 µM
# [31] = second compound 0.3 µM, first compound 0.0316 µM
# [32] = second compound 0.3 µM, first compound 0.1 µM
# [33] = second compound 0.3 µM, first compound 0.316 µM
# [34] = second compound 0.3 µM, first compound 1 µM
# [35] = second compound 0.3 µM, first compound 3.16 µM
# [36] = second compound 0.3 µM, first compound 10 µM
# 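Note: spheroids exposed to compound for seven days before viability readout.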
compound,measurement,setting,value
CC(=O)OC12COC1CC(O)C1(C)C(=O)C(O)C3=C(C)C(OC(=O)C(O)C(NC(=O)OC(C)(C)C)c4ccccc4)CC(O)(C(OC(=O)c4ccccc4)C21)C3(C)C (centres undefined) + CCn1c(-c2cc(N3CCN(C)CC3)cnc2C(C)OC)c2c3cc(ccc31)-c1csc(n1)CC(NC(=O)C1CC1C)C(=O)N1CCCC(N1)C(=O)OCC(C)(C)C2,IC50,second compound 0.000949 µM,< 31.6 nM
same,IC50,second compound 0.003 µM,< 31.6 nM
same,IC50,second compound 0.00949 µM,< 31.6 nM
same,IC50,second compound 0.03 µM,< 31.6 nM
same,IC50,second compound 0.0949 µM,< 31.6 nM
same,IC50,second compound 0.3 µM,< 31.6 nM
same,"viability, T/C",[1],12.3%
same,"viability, T/C",[2],12.4%
same,"viability, T/C",[3],14.2%
same,"viability, T/C",[4],13.5%
same,"viability, T/C",[5],17.1%
same,"viability, T/C",[6],19.4%
same,"viability, T/C",[7],14.3%
same,"viability, T/C",[8],11.3%
same,"viability, T/C",[9],13.8%
same,"viability, T/C",[10],13.4%
same,"viability, T/C",[11],15.2%
same,"viability, T/C",[12],22.9%
same,"viability, T/C",[13],14.9%
same,"viability, T/C",[14],16.2%
same,"viability, T/C",[15],13.8%
same,"viability, T/C",[16],16%
same,"viability, T/C",[17],18.8%
same,"viability, T/C",[18],17.1%
same,"viability, T/C",[19],14.4%
same,"viability, T/C",[20],12.8%
same,"viability, T/C",[21],15.9%
same,"viability, T/C",[22],18%
same,"viability, T/C",[23],18%
same,"viability, T/C",[24],19.1%
same,"viability, T/C",[25],11.5%
same,"viability, T/C",[26],14.2%
same,"viability, T/C",[27],14.5%
same,"viability, T/C",[28],14.3%
same,"viability, T/C",[29],17.3%
same,"viability, T/C",[30],18%
same,"viability, T/C",[31],15.2%
same,"viability, T/C",[32],12.8%
same,"viability, T/C",[33],17.8%
same,"viability, T/C",[34],16.8%
same,"viability, T/C",[35],21.4%
same,"viability, T/C",[36],18.4%
CCC(CC)c1cc(NC2CCC(N)C2)n2nccc2n1 (centres undefined) + CCn1c(-c2cc(N3CCN(C)CC3)cnc2C(C)OC)c2c3cc(ccc31)-c1csc(n1)CC(NC(=O)C1CC1C)C(=O)N1CCCC(N1)C(=O)OCC(C)(C)C2,IC50,second compound 0.000949 µM,825 nM
same,IC50,second compound 0.003 µM,1050 nM
same,IC50,second compound 0.00949 µM,1140 nM
same,IC50,second compound 0.03 µM,842 nM
same,IC50,second compound 0.0949 µM,985 nM
same,IC50,second compound 0.3 µM,986 nM
same,"viability, T/C",[1],96.1%
same,"viability, T/C",[2],91.7%
same,"viability, T/C",[3],98.7%
same,"viability, T/C",[4],40.8%
same,"viability, T/C",[5],2.44%
same,"viability, T/C",[6],2.65%
same,"viability, T/C",[7],103%
same,"viability, T/C",[8],106%
same,"viability, T/C",[9],96.5%
same,"viability, T/C",[10],52.7%
same,"viability, T/C",[11],2.69%
same,"viability, T/C",[12],2.78%
same,"viability, T/C",[13],94.8%
same,"viability, T/C",[14],94.3%
same,"viability, T/C",[15],90%
same,"viability, T/C",[16],56.3%
same,"viability, T/C",[17],2.15%
same,"viability, T/C",[18],2.27%
same,"viability, T/C",[19],107%
same,"viability, T/C",[20],103%
same,"viability, T/C",[21],94.1%
same,"viability, T/C",[22],42.8%
same,"viability, T/C",[23],2.26%
same,"viability, T/C",[24],2.15%
same,"viability, T/C",[25],119%
same,"viability, T/C",[26],103%
same,"viability, T/C",[27],99.8%
same,"viability, T/C",[28],50.7%
same,"viability, T/C",[29],2.85%
same,"viability, T/C",[30],2.9%
same,"viability, T/C",[31],116%
same,"viability, T/C",[32],107%
same,"viability, T/C",[33],108%
same,"viability, T/C",[34],49.4%
same,"viability, T/C",[35],2.38%
same,"viability, T/C",[36],2.44%
